One data set has as its system human MDR1. In words: Efflux ratio of permeability from basolateral to apical side over apical to basolateral side in pig LLC-PK1 cells expressing human MDR1. It counts as ADME, cell-based, Sus scrofa.
The nature of data set [1]: Apparent passive permeability of the compound in presence of […]. The note with it: not told. It counts as physicochemical.
In data set [2] the target is Calcitonin-gene-related peptide receptor, CALCRL/RAMP1 (Homo sapiens, UniProt O60894+Q16602). In words: Displacement of [125I]-hCGRP from human CALCRL/RAMP1 expressed in HEK293 cell membranes.
Sequence of Calcitonin-gene-related peptide receptor, CALCRL/RAMP1 (O60894 whole entry): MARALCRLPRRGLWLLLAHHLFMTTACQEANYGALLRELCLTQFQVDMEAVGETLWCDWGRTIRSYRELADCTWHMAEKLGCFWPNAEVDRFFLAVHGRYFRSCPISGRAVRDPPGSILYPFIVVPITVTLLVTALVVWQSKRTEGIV
Sequence of Calcitonin-gene-related peptide receptor, CALCRL/RAMP1 (Q16602 whole entry): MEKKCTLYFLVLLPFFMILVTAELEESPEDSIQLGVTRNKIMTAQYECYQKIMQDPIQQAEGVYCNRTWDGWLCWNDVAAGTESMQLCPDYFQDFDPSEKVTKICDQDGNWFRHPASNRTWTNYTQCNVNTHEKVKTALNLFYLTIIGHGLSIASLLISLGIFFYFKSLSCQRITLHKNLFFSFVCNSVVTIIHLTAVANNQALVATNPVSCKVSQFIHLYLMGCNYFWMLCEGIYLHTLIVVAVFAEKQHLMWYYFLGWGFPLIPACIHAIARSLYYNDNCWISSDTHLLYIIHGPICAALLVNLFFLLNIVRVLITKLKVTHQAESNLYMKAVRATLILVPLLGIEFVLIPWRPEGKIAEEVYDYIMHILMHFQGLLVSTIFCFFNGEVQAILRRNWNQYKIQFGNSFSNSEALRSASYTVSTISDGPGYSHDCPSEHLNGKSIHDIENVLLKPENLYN
The nature of data set [3]: Half life in rat at 2 mg/kg. As to conditions: in vivo. The arrangement: dose 2 mg/kg. It counts as ADME, organism-based.
Data set [4] in a line: Oral bioavailability in rat at 10 mg/kg. In kind it is ADME, organism-based. The note with it: in vivo.
The nature of data set [5]: Clearance in rat at 2 mg/kg. It counts as ADME, organism-based. Set-up: dose 2 mg/kg. The note with it: in vivo.

The structures appear in SMILES notation.

`C[C@H](c1cc(F)cc(F)c1)N(Cc1cnc2cc3c(cc2c1)C[C@@]1(C3)C(=O)Nc2ncccc21)C(=O)C(C)(C)C`: the efflux ratio in the data set with human MDR1 was 1.3. Also, the Papp in data set [1] was 20 ×10⁻⁶ cm/s.

`C[C@H](c1cc(F)cc(F)c1)N(C/C=C/c1ccc2c(c1)C[C@@]1(C2)C(=O)Nc2ncccc21)C(=O)[C@@H]1CCCN1C`: the Ki in data set [2] was 3380 pM. In addition, the efflux ratio in the data set on human MDR1 is 27. The Papp in data set [1] came out at 33 ×10⁻⁶ cm/s.

Consider `C[C@H](c1ccccc1)N(C/C=C/c1ccc2c(c1)C[C@@]1(C2)C(=O)Nc2ncccc21)C(=O)C(C)(C)C`, for which the Ki in data set [2] is 350 pM.

For the compound `CC(C)(C)C(=O)N(C/C=C/c1ccc2c(c1)C[C@@]1(C2)C(=O)Nc2ncccc21)[C@@H]1CCc2ccccc21`, the Ki in data set [2] is 200 pM.

Consider `CC(C)C(=O)N(C/C=C/c1ccc2c(c1)C[C@@]1(C2)C(=O)Nc2ncccc21)[C@H](C)c1cc(F)cc(F)c1`, for which the Ki in data set [2] is 1270 pM.

Consider `C[C@H](c1cc(F)cc(F)c1)N(C/C=C/c1ccc2c(c1)C[C@@]1(C2)C(=O)Nc2ncccc21)C(=O)C1CCOCC1`, for which the Ki in data set [2] was 90 pM. Besides, in the data set with human MDR1, the efflux ratio is 1.9. In data set [1], the Papp was determined as 32 ×10⁻⁶ cm/s.

Consider `Cc1cc(C(=O)N(C/C=C/c2ccc3c(c2)C[C@@]2(C3)C(=O)Nc3ncccc32)[C@H](C)c2cc(F)cc(F)c2)n(C)n1`, for which the Ki in data set [2] was 450 pM. In addition, the efflux ratio with human MDR1 turned out to be 2. Further, the Papp in data set [1] was 17 ×10⁻⁶ cm/s.

As for `C[C@H](c1cc(F)cc(F)c1)N(C/C=C/c1cnc2c(c1)C[C@@]1(C2)C(=O)Nc2ncccc21)C(=O)C(C)(C)C`, the half-life in data set [3] is 11 h. In data set [2], the Ki was 40 pM. In data set [4], this compound came in with a bioavailability of 51%. In data set [5], the clearance amounted to 23 mL/min/kg. The efflux ratio in the data set with human MDR1 was 1.4. Further, in data set [1], the Papp worked out at 27 ×10⁻⁶ cm/s.

In the case of `C[C@H](c1ccccc1)N(C/C=C/c1cnc2c(c1)C[C@@]1(C2)C(=O)Nc2ncccc21)C(=O)C(C)(C)C`, in data set [2], the Ki is 220 pM.

In the case of `CC(C)(C)C(=O)N(C/C=C/c1cnc2c(c1)C[C@@]1(C2)C(=O)Nc2ncccc21)[C@@H]1CCc2ccccc21`, the Ki in data set [2] was 80 pM. Besides, the efflux ratio in the data set with human MDR1 came to 3.1. Also, the Papp in data set [1] was 24 ×10⁻⁶ cm/s.

In the case of `CC(C)(C)C(=O)N(C/C=C/c1cnc2c(c1)C[C@@]1(C2)C(=O)Nc2ncccc21)Cc1cc(F)cc(F)c1`, the Ki in data set [2] was 930 pM. In addition, the efflux ratio in the data set on human MDR1 was found to be 0.9. Moreover, the Papp in data set [1] amounted to 23 ×10⁻⁶ cm/s.

In the case of `CC(C)(C)C(=O)N(C/C=C/c1cnc2c(c1)C[C@@]1(C2)C(=O)Nc2ncccc21)C1CCCCCC1`, the Ki in data set [2] was 890 pM. For the same compound, the efflux ratio with human MDR1 was 0.8. Also, the Papp in data set [1] was 20 ×10⁻⁶ cm/s.

For `Cc1ccc([C@@H](C)N(C/C=C/c2cnc3c(c2)C[C@@]2(C3)C(=O)Nc3ncccc32)C(=O)C(C)(C)C)cc1F`, in the data set with human MDR1, the efflux ratio worked out at 1.1. The Papp in data set [1] stood at 18 ×10⁻⁶ cm/s.

With `C[C@H](c1ccc(Cl)cc1)N(C/C=C/c1cnc2c(c1)C[C@@]1(C2)C(=O)Nc2ncccc21)C(=O)C(C)(C)C`, in data set [2], the Ki is 310 pM. Moreover, the efflux ratio with human MDR1 was determined as 1. In data set [1], the Papp worked out at 17 ×10⁻⁶ cm/s.

In the case of `C[C@H](c1cc(F)cc(F)c1)N(C/C=C/c1cnc2c(c1)C[C@@]1(C2)C(=O)Nc2ncccc21)C(=O)C1(C(F)(F)F)CC1`, the efflux ratio with human MDR1 was found to be 2. In data set [1], the Papp was 21 ×10⁻⁶ cm/s.

Turning to `Cc1ccsc1C(=O)N(C/C=C/c1cnc2c(c1)C[C@@]1(C2)C(=O)Nc2ncccc21)[C@H](C)c1cc(F)cc(F)c1`, the Ki in data set [2] was 130 pM. Besides, the efflux ratio with human MDR1 stood at 1.5. Besides, in data set [1], the Papp came to 17 ×10⁻⁶ cm/s.

Take `C[C@H](c1cc(F)cc(F)c1)N(C/C=C/c1cnc2c(c1)C[C@@]1(C2)C(=O)Nc2ncccc21)C(=O)c1nccn1C`: the Ki in data set [2] is 160 pM. The efflux ratio in the data set on human MDR1 is 19. Moreover, the Papp in data set [1] is 28 ×10⁻⁶ cm/s.

On to `Cc1noc(C)c1C(=O)N(C/C=C/c1cnc2c(c1)C[C@@]1(C2)C(=O)Nc2ncccc21)[C@H](C)c1cc(F)cc(F)c1`, for which the Ki in data set [2] was 2390 pM. For the same compound, the efflux ratio in the data set on human MDR1 worked out at 16. For the same compound, the Papp in data set [1] amounted to 29 ×10⁻⁶ cm/s.

In the case of `CC(C)(C)C(=O)N(CC#Cc1ccc2c(c1)C[C@@]1(C2)C(=O)Nc2ncccc21)[C@@H]1CCc2ccccc21`, the Ki in data set [2] is 200 pM.

As to `C[C@H](c1ccccc1)N(CC#Cc1ccc2c(c1)C[C@@]1(C2)C(=O)Nc2ncccc21)C(=O)C(C)(C)C`, in data set [2], the Ki is 820 pM.

As to `CC(C)(C)C(=O)N(CC#Cc1cnc2c(c1)C[C@@]1(C2)C(=O)Nc2ncccc21)[C@@H]1CCc2ccccc21`, in data set [2], the Ki was 50 pM. Moreover, in the data set on human MDR1, the efflux ratio turned out to be 1.1. Moreover, in data set [1], the Papp amounted to 26 ×10⁻⁶ cm/s.

Regarding `C[C@H](c1ccccc1)N(CC#Cc1cnc2c(c1)C[C@@]1(C2)C(=O)Nc2ncccc21)C(=O)C(C)(C)C`, in data set [2], the Ki was 130 pM. Besides, the efflux ratio with human MDR1 came out at 1.3. In data set [1], the Papp came to 33 ×10⁻⁶ cm/s.

For the compound `CC(C)(C)C(=O)N(CCCc1ccc2c(c1)C[C@@]1(C2)C(=O)Nc2ncccc21)[C@@H]1CCc2ccccc21`, in data set [2], the Ki was 2060 pM.

On to `C[C@H](c1ccccc1)N(CCCc1ccc2c(c1)C[C@@]1(C2)C(=O)Nc2ncccc21)C(=O)C(C)(C)C`, for which the Ki in data set [2] is 7600 pM.

On to `C[C@H](c1cc(F)cc(F)c1)N(CCCc1cnc2c(c1)C[C@@]1(C2)C(=O)Nc2ncccc21)C(=O)C(C)(C)C`, for which, in data set [2], the Ki is 220 pM. In the data set with human MDR1, the efflux ratio is 3.1. For the same compound, the Papp in data set [1] was 26 ×10⁻⁶ cm/s.

Consider `CC(C)(C)C(=O)N(CCCc1cnc2c(c1)C[C@@]1(C2)C(=O)Nc2ncccc21)[C@@H]1CCc2ccccc21`, for which, in data set [2], the Ki is 610 pM. In addition, in the data set with human MDR1, the efflux ratio was 2.6. Further, in data set [1], the Papp turned out to be 33 ×10⁻⁶ cm/s.

For the compound `C[C@H](c1ccccc1)N(CCCc1cnc2c(c1)C[C@@]1(C2)C(=O)Nc2ncccc21)C(=O)C(C)(C)C`, the Ki in data set [2] was 1350 pM. Also, the efflux ratio with human MDR1 is 3.2. In addition, the Papp in data set [1] was 39 ×10⁻⁶ cm/s.

For `C[C@H](c1cc(F)cc(F)c1)N(CC(=O)Nc1ccc2c(c1)C[C@@]1(C2)C(=O)Nc2ncccc21)C(=O)C(C)(C)C`, the half-life in data set [3] is 1 h. In addition, the clearance in data set [5] stood at 11 mL/min/kg. Moreover, the efflux ratio in the data set on human MDR1 turned out to be 3.2. In data set [1], the Papp was 26 ×10⁻⁶ cm/s.

For the compound `C[C@H](c1cc(F)cc(F)c1)N(C/C=C/c1ccc2c(c1)C[C@@]1(C2)C(=O)Nc2ncccc21)C(=O)C(C)(C)C`, the Ki in data set [2] was 160 pM.

Turning to `C[C@H](c1cc(F)cc(F)c1)N(CC(=O)Nc1ccc2c(c1)C[C@@]1(C2)C(=O)NC(=O)N1C)C(=O)C(C)(C)C`, in the data set with human MDR1, the efflux ratio was 8.8. Besides, in data set [1], the Papp came out at 25 ×10⁻⁶ cm/s.

The values are drawn from ChEMBL document CHEMBL3098057, “(E)-Alkenes as replacements of amide bonds: development of novel and potent acyclic CGRP receptor antagonists” (Bioorg Med Chem Lett, 2014).
